The text below walks through data of patent US5795907A, “Gastin and CCK receptor ligands” (James Black Foundation Limited, priority 1994, dated 1998).

One experiment deals with T1, CCKA (Cavia porcellus, UniProt Q63931).
T1 construct: The pancreatata were homogenised in 40 ml ice-cold HEPES buffer using a polytron; from tissue; host or cells: pancreas membranes of male Dunkin Hartley guinea-pigs
T1 sequence (Q63931 1-430): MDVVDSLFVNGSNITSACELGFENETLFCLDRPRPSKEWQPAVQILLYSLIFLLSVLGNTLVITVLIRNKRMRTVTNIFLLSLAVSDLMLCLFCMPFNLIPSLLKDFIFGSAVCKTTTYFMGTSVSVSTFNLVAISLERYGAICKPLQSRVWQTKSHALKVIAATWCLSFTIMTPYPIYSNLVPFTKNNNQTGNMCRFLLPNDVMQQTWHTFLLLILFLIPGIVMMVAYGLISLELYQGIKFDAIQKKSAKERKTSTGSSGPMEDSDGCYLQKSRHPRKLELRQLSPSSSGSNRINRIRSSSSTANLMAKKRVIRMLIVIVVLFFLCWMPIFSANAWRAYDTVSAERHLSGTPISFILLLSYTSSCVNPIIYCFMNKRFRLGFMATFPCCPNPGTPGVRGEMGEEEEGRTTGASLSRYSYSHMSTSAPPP
In words: CCKA radioligand binding assay in guinea-pig pancreas membranes ([125I]-CCK8(S)). The note with it: PD134,308 present, 150 minutes at 21±3°; for Ki: read-out: CCKA pKi (converted). The method, then: The compounds of the examples were also tested in a CCKA as follows:
The pancreatata were removed from male guinea-pigs (200-300 g; Dunkin Hartley) and placed in ice-cold HEPES buffer (pH 7.2 @ 21 ±3). The pancreatata were homogenised in 40 ml ice-cold HEPES buffer using a polytron (Brinkmann, PT10, setting 10) 4×1 second. The homogenate was centrifuged at 39,800 g for 15 min at 4°. The supernatant was discarded and the pellet re-suspended using a Teflon-in-glass homogeniser in 20 volumes of fresh buffer and re-centrifuged as above.
The final pellet was re-suspended using a Teflon-in-glass homogeniser to a tissue concentration of 1 mg.ml^-1 (original wet weight), and filtered through 500 μm pore-size Nytex mesh.
The membranes (400 μl; containing 0.375 μM PD134,308) are incubated for 150 minutes at 21±3° in a final volume of 0.5 ml with HEPES buffer containing [^125 I]-CCK8 (S) (50 μl; […]) and competing compound. Total and non-specific binding of [^125 I]-CCK8 (S) are defined using 50 μl of buffer and 50 μl of 100 nM L-364,718 respectively. The assay is terminated by rapid filtration through pre-soaked Whatman GF/B filters using a Brandell Cell Harvester. The filters were washed (3×3 ml) with ice-cold 50 mM Tris HCl (pH 7.4 at 4°) and bound radioactivity is determined by counting (1 min) in a gamma counter.

Another experiment has as its target T2, CCKB receptor (Mus musculus, UniProt P56481).
T2 construct: The cortex was dissected, weighed and homogenised in 40ml ice-cold buffer; tissue Charles River (supplier of the CD1 mice); host or cells: cerebral cortex membranes of male CD1 mice
T2 sequence (P56481 1-453): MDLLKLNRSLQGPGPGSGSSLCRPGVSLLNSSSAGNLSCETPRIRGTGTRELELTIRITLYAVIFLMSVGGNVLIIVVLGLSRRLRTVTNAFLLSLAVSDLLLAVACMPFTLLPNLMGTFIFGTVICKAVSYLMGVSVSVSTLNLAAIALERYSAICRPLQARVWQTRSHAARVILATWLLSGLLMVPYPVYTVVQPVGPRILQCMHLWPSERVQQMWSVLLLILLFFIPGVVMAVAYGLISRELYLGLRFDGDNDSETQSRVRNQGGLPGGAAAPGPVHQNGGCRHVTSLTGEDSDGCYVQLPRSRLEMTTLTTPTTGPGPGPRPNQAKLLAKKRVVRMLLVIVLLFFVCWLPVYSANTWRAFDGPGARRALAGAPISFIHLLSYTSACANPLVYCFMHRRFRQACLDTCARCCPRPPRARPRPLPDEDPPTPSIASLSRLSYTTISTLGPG
In words: CCKB receptor radioligand binding assay in mouse cortical membranes ([125I]-CCK8S). To be noted: [125I]-CCK8S 200 pM, 150 min at 21±3°; for Ki: read-out: CCKB pKi (converted). The protocol:
The compounds of the examples were tested for binding at the CCKB receptor in mouse cortical membranes by means of a radioligand binding assay. The procedure was as follows:
The whole brains from male mice (CD1 22-25 g; Charles River) were removed and placed in ice-cold buffer (pH7.2 @ 21±3°) of the following composition (mM); 10 HEPES, 130 NaCl, 4.7 KCl, 5 MgCl2, 1 EDTA and containing 0.25g.^-1 bacitracin. The cortex was dissected, weighed and homogenised in 40ml ice-cold buffer using a Teflon-in-glass homogeniser. The homogenate was centrifuged at 39,800g for 20 min at 4°, the supernatant discarded and the pellet resuspended by homogenisation in fresh buffer. The homogenate was recentrifuged (39,800 g; 20 min @ 4°) and the final pellet was resuspended in HEPES buffer to give a tissue concentration of 2 mg.ml^-1 (original wet weight).
The membranes ([…]) were incubated for 150 min at 21±3° in a final volume of 0.5 ml with HEPES buffer containing [^125 I]-CCK8S (0.05 ml; 200 pM NEN 2200 Ci.mmol^-1) and competing compound. Total and non-specific binding of [^125 I]-CCK8S were defined using 0.05 ml of buffer and 0.05 ml of […] L-365,260, respectively. The assay was terminated by rapid filtration through pre-soaked Whatman GF/B filters using a Brandell Cell harvester. The filters were washed (3×3 ml) with ice-cold 50 mM Tris-HCl (pH7.4 @ 4° C.) and bound radioactivity determined by counting (1 min.) in a gamma-counter.

With `O=C(NCC12CC3CC(CC(C3)C1)C2)c1cc2[nH]ccc2cc1C(=O)N[C@@H](Cc1ccccc1)C(=O)Nc1cccc(S(=O)(=O)NC(=O)C(F)(F)F)c1` [Example 99, 5-(1S-(3-trifluoroacetylaminosulphonylphenylaminocarbonyl)-2-phenylethylaminocarbonyl)-6-(1-adamantanemethylaminocarbonyl)-indole], the “CCKA pKi” value at CCKA came out at 5.4. The “CCKB pKi” value on CCKB receptor is given as 8.4.

As for `NC(=O)c1cc(NC(=O)[C@H](Cc2ccccc2)NC(=O)c2cc3[nH]cnc3cc2C(=O)NCC23CC4CC(CC(C4)C2)C3)cc(C(N)=O)c1` [Example 117, 5-(1S-(3,5-diaminocarbonylphenylaminocarbonyl)-2-phenylethylaminocarbonyl)-6-(1-adamantanemethylaminocarbonyl)-benzimidazole], the Ki on CCKA was 1.58 µM; at CCKB receptor it was 0.794 µM.

Take `O=C(O)c1cc(NC(=O)[C@H](Cc2ccccc2)NC(=O)c2cc3[nH]cnc3cc2C(=O)NCc2ccc3ccccc3c2)cc(C(=O)O)c1` [Example 130, 5-(1S-(3,5-dicarboxyphenylaminocarbonyl)-2-phenylethylaminocarbonyl)-6-(2-naphthalenenemethylaminocarbonyl)-benzimidazole]: the Ki on CCKA was 3.98 µM; on CCKB receptor it was 0.0251 µM.

Turning to `O=C(O[C@H]1CO[C@@H](c2ccccc2)OC1)c1cc(NC(=O)[C@H](Cc2ccccc2)NC(=O)c2cc3cc[nH]c3cc2C(=O)NCC23CC4CC(CC(C4)C2)C3)cc(C(=O)O[C@H]2CO[C@@H](c3ccccc3)OC2)c1` [Example 106, 5-(1S-(3,5-di-(cis-4-phenyl-3,5-dioxacyclohexaneoxycarbonyl)-phenylaminocarbonyl)-2-phenylethylaminocarbonyl)-6-(1-adamantanemethyl-aminocarbonyl)-indole], the Ki at CCKB receptor was 2 µM.

With `O=C(O)c1cc(NC(=O)[C@H](Cc2ccccc2)NC(=O)c2cc3[nH]c4ccccc4c3cc2C(=O)NCC23CC4CC(CC(C4)C2)C3)cc(C(=O)O)c1` [Example 52, 2-(1S-(3,5-dicarboxyphenylaminocarbonyl)-2-phenylethylaminocarbonyl)-3-(1-adamantanemethylaminocarbonyl)-carbazole], the figures for the Ki on CCKA and on CCKB receptor were 1.26 µM and 0.0631 µM, respectively.

As to “5-(1S-(3,5-diethoxycarbonylphenylaminocarbonyl)-2-phenylethylaminocarbonyl)-6-(1-adamantanemethylaminocarbonyl)-indole and regioisomer with substituents at positions 5 and 6 reversed [Example 66]”, the “CCKA pKi” value at CCKA amounted to 5.0. The “CCKB pKi” value at CCKB receptor is 5.8.

For the compound `COC(=O)c1cc(NC(=O)[C@H](Cc2ccccc2)NC(=O)c2cc3ccccc3cc2C(=O)NCC23CC4CC(CC(C4)C2)C3)cc(C(=O)OC)c1` [Example 17, 2-(1S-(3,5-dimethoxycarbonyl-phenylamino-carbonyl)-2-phenylethylaminocarbonyl)-3-(1-adamantanemethylaminocarbonyl)-naphthalene], on CCKA, the Ki is 15.8 µM.

`O=C(NCC12CC3CC(CC(C3)C1)C2)c1cc(Cl)c(Cl)cc1C(=O)N1CCC[C@@H]1C(=O)O` [Example 19, (2R-carboxypyrrolidino-carbonyl)-2-(1-adamantanemethylaminocarbonylmethyl)-4,5-dichlorobenzene]: the Ki on CCKA is 5.01 µM; at CCKB receptor it was 2 µM.

As for `O=C(NCC12CC3CC(CC(C3)C1)C2)c1cc2nc[nH]c2cc1C(=O)N[C@@H](Cc1ccccc1)C(=O)Nc1cc(CO)cc(CO)c1` [Example 119, 5-(1S-(3,5-dihydroxymethylphenylaminocarbonyl)-2-phenylethylaminocarbonyl)-6-(1-adamantanemethylaminocarbonyl)-benzimidazole], the “CCKA pKi” value at CCKA came to 5.6. At CCKB receptor, the “CCKB pKi” value was determined as 6.2.

In the case of `Nc1ccc(C[C@H](NC(=O)c2cc3[nH]cnc3cc2C(=O)NCC23CC4CC(CC(C4)C2)C3)C(=O)Nc2cc(C(=O)O)cc(C(=O)O)c2)cc1` [Example 64, 5-(1S-(3,5-dicarboxyphenylaminocarbonyl)-2-(4-aminophenyl)-ethylaminocarbonyl)-6-(1-adamantanemethylaminocarbonyl)-benzimidazole], on CCKB receptor, the Ki was 0.0631 µM.

For the compound `COC(=O)c1cc(NC(=O)[C@H](Cc2ccccc2)NC(=O)c2cc3ccccc3cc2C(=O)NCC23CC4CC(CC(C4)C2)C3)cc(C(=O)O)c1` [Example 18, 2-(1S-(3-methoxycarbonyl-5-carboxyphenylaminocarbonyl)-2-phenylethylaminocarbonyl)-3-(1-adamantanemethylaminocarbonyl)-naphthalene], the Ki at CCKA was 0.501 µM.

As to `O=C(O)c1cc(NC(=O)[C@H](Cc2ccccc2)NC(=O)c2cc3cc[nH]c3cc2C(=O)NCC2CCC(O)CC2)cc(C(=O)O)c1` (single isomer, unassigned) [Example 110, 5-(1S-(3,5-dicarboxyphenylaminocarbonyl)-2-phenylethylaminocarbonyl)-6-(4-hydroxycyclohexanemethylaminocarbonyl)-indole], the Ki on CCKB receptor was 0.398 µM.

For `CC(C)(C)C(=O)OCOC(=O)c1cc(NC(=O)[C@H](Cc2ccccc2)NC(=O)c2cc3ccoc3cc2C(=O)NCC23CC4CC(CC(C4)C2)C3)cc(C(=O)OCOC(=O)C(C)(C)C)c1` [Example 121, 5-(1S-(3,5-di-t-butylcarbonyloxymethyloxycarbonylphenylaminocarbonyl)-2-phenylethylaminocarbonyl)-6-(1-adamantanemethylaminocarbonyl)-benzofuran], the “CCKA pKi” value on CCKA was determined as 5.1.

Regarding “5-(1S-(3,5-diaminophenylaminocarbonyl)-2-phenylethylaminocarbonyl)-6-(1-adamantanemethyl-N-methylaminocarbonyl)-indole and regioisomer with substituents at positions 5 and 6 reversed [Example 43]”, at CCKB receptor, the “CCKB pKi” value is 5.8.

Consider `CC(=O)NS(=O)(=O)c1cccc(NC(=O)[C@H](Cc2ccccc2)NC(=O)c2cc3cc[nH]c3cc2C(=O)NCC23CC4CC(CC(C4)C2)C3)c1` [Example 138, 5-(1S-(3-acetylaminosulphonylphenylaminocarbonyl)-2-phenylethylaminocarbonyl)-6-(1-adamantanemethylaminocarbonyl)-indole], for which the “CCKB pKi” value at CCKB receptor was 8.1.
